Source: patent US7307166B1, “Oxpurine nucleosides and their congeners, and acyl, derivatives thereof, for improvement of hematopoiesis” (Wellstat Therapeutics Corporation, priority 1987, dated 2007)

How the values were obtained:
[1] = system: IL-3-dependent bone marrow cells; assay: Apoptosis of IL-3-dependent bone marrow cells deprived of IL-3 (trypan blue exclusion); assay type: cell-based, mouse
Method: Bone marrow cells were obtained by flushing the femurs of three male B6D2F1 mice. The cells were plated at 5.0×10^5/ml in MEM plus 10% fetal calf serum and 25 Units/ml of recombinant IL-3 for 24-48 hours. Non-adherent cells were then separated from adherent cells and maintained for an additional twelve days. IL-3 washed from cells, and cells were plated in MEM plus 10% fetal calf serum in the presence or absence of IL-3 and with or without the addition of palmitoyldeoxyguanosine (10 micrograms per milliliter) or deoxyguanosine (10 micrograms per milliliter). Cells were counted using the trypan blue exclusion method, and the percent of dead cells (trypan blue positive) was determined at 24, 40, 60 and 84 hours following the wash.

Balb/C female mice [2] = assay: Hematopoietic recovery after cyclophosphamide in mice (spleen weight, blood cell counts); assay type: in vivo, mouse; conditions: for spleen weight: Ex 38: day 7 after CP, guanosine 5, acyl derivatives 2.5 μmoles/mouse/day in 0.2% Tween 80 i.p. 6 days, Tween 80 0.2%; for Neutrophils / total leukocytes: Ex 48: day 7 after CP, 2.5 μmoles/mouse
Method: Twenty-four hours later and each day thereafter for a total of 6 days, mice were given a 0.4 ml i.p. injection of either physiological saline (controls), guanine (5 μmoles/mouse/day), or guanosine (5 μmoles/mouse/day). On day 7 all 10 mice in each of the three groups were bled, and then sacrificed by cervical dislocation. Spleens were removed and weighed, and complete blood cell counts performed.
Twenty-four hours later and each day thereafter for a total of 6 days, mice were given a 0.4 ml i.p injection of either physiological saline (controls), Tween 80 (0.2%), guanosine (5 μmoles/mouse/day in 0.2% Tween 80), or 2.5 μmoles per mouse per day of one of the following acylated derivatives of guanosine in 0.2% Tween 80: triacetylguanosine, octanoylguanosine, lauroylguanosine, or palmitoylguanosine. On day 7 following CP administration all 10 animals from each of the 7 groups were bled, and then sacrificed by cervical dislocation. Spleens were removed and weighed, and complete blood counts performed.
Twenty-four hours later treatment was begun. Mice were given a 0.4 ml i.p. injection of either physiological saline (controls), Tween 80 (0.2%), or palmitoylguanosine (5 μmoles/mouse/day in 0.2% Tween 80). The timing of the treatments was varied within the groups. The control group was given saline on days 1-6. The mice receiving Tween 80 were treated either on days 1-4, 4-6 or 1-6. Palmitoylguanosine-treated mice were treated either on days 1-2, 1-4, 3-5, 4-6 or 1-6. If a group of mice received no Tween 80 or palmitoylguanosine on a given day, saline was administered by i.p. injection. Thus, there were 9 groups of 9 animals in all. On day 7 following CP administration all of the animals were bled and then sacrificed by cervical dislocation. Spleens were removed and weighed, and complete blood cell counts performed.
Twenty-four hours later and each day thereafter for a total of 6 days, mice were given a 0.4 ml i.p. injection of either physiological saline (controls), Tween 80 (0.5%), or one of three different doses of octanoylguanosine (0.5, 2.5, or 5 μmoles/mouse/day in 0.5% Tween 80). On day 7 following CP administration all 9 animals from each of the […] were bled and then sacrificed by cervical dislocation. Spleens were removed and weighed, and complete blood cell counts performed.
Twenty-four hours later and each day thereafter for a total of 6 days, mice were given a 0.4 ml i.p. injection of either physiological saline (controls), Tween 80 (0.5%), or octanoylguanosine (5.0 μmoles/mouse/day in 0.5% Tween 80). On day 7 following CP administration all 10 animals from each of the 3 groups were bled and then sacrificed by cervical dislocation. Spleens were removed, weighed, and fixed in 10% formalin for later histological examination. Complete blood cell counts were performed on the collected blood.
Twenty-four hours later and each day thereafter for a total of 6 days, mice were given a 0.4 ml i.p. injection of either physiological saline (controls), benzoylguanosine (2.5 μmoles/mouse/day in 0.2% Tween 80), or palmitoylguanosine (2.5 μmoles/mouse/day in 0.2% Tween 80). On days 7 and 10 following CP administration 8 animals from each of the 3 groups were bled and then were sacrificed by cervical dislocation. Spleens were removed and weighed, and complete blood cell counts performed.
Twenty four hours later and each day thereafter for a total of 4 or 6 days, mice were given a 0.4 ml i.p. injection of either physiological saline (controls), palmitoyldeoxyinosine (2.5 μmoles/mouse), or palmitoyl-xanthosine (2.5 μmoles/mouse). On days 5 and 7 following CP administration 6 of the 12 animals in each of the 3 groups were bled and then sacrificed by cervical dislocation. Spleens were removed and weighed, and complete blood cell counts performed.

Balb/C female mice [3] = assay: as above; assay type: in vivo, mouse
[4] = system: Normal Balb/C female mice; assay: Hematopoiesis in normal mice; assay type: in vivo, mouse; conditions: for number of myelocytes (femoral bone marrow): 2.6 μmoles/mouse daily 4 days; for spleen weights: 2.5 Moles/mouse/day i.p.
Method: Normal, otherwise untreated, female Balb/C mice weighing approximately 20 grams each received a total of 4 or 9 0.4 ml intraperitoneal injections (one per day) of either Tween-80 (0.2%) (controls), palmitoylguanosine ([…]), or palmitoyldeoxyinosine ([…]). Twenty-four hours after the 4th or 9th treatment, groups of 5 or 6 animals from each of the 3 groups were bled and then sacrificed by cervical dislocation. Spleens were removed and weighed, and complete blood cell counts performed.
Normal Balb/C female mice weighing approximately 20 grams each were given a daily 0.4 ml i.p. injection of either physiological saline (controls), palmitoylguanosine (2.6 μmoles/mouse), palmitoyldeoxyguanosine (2.6 μmoles/mouse), monopalmitoylguanosine 2′,3′-acyclic dialcohol (2.6 μmoles/mouse), and palmitoyl-8-bromoguanosine (2.6 μmoles/mouse) for 4 days. On the fifth day all 3 animals in each of the 5 groups were bled and then sacrificed by cervical dislocation. Spleens were removed and weighed, and complete blood cell counts performed. Femoral bone marrow from each mouse was collected and a differential cell count performed on marrow smears.

[5] = Ex 45: day 7 after CP, dose-dependent, 0.5-5 μmoles/mouse/day
[6] = Ex 46: day 7 after CP, 5.0 μmoles/mouse/day
[7] = Ex 50: day 5 after CP, 2 μmoles/mouse
[8] = Ex 48: day 5 after CP, 2.5 μmoles/mouse
[9] = Ex 48: day 7 after CP, 2.5 μmoles/mouse
[10] = Ex 47: day 7 after CP, 2.5 μmoles/mouse/day

## Nc1nc2c(ncn2[C@H]2C[C@H](O)[C@@H](CO)O2)c(=O)[nH]1 [dG, deoxyguanosine]
[1]; 24 hr after IL-3 wash, PdG or dG 10 micrograms per milliliter without IL-3, +IL3 = with IL-3
  % Dead Cells: 15.5 ± 0.5%
[1]; 40 hr after IL-3 wash, 10 micrograms per milliliter
  % Dead Cells: 21.5 ± 3.5 %
[1]; 60 hr after IL-3 wash, 10 micrograms per milliliter
  % Dead Cells: 46.3 ± 10.3%
[1]; 84 hr after IL-3 wash, 10 micrograms per milliliter
  % Dead Cells: 68.3 ± 6.0%

## CCCCCCCCCCCC(=O)OC[C@H]1O[C@@H](n2cnc3c(=O)[nH]c(N)nc32)[C@H](O)[C@@H]1O [laurolyguanosine, Lauroylguanosine]
Balb/C female mice [2]
  spleen weight: significantly larger spleens

## CCCCCCCC(=O)OC[C@H]1O[C@@H](n2cnc3c(=O)[nH]c(N)nc32)[C@H](O)[C@@H]1O
Balb/C female mice [2]
  spleen weight: significantly larger spleens
Balb/C female mice [2]; [5]
  total number of neutrophils: significantly increased
Balb/C female mice [2]; [6]
  peripheral white blood cells (WBC): significantly greater
Balb/C female mice [3]; Ex 45: day 7 after CP, 0.5, 2.5 or 5 μmoles/mouse/day in 0.5% Tween 80 i.p. 6 days
  spleen size: significantly larger
Balb/C female mice [3]; [5]
  total number of leukocytes: significantly increased
Balb/C female mice [3]; [6]
  Neutrophils: significantly greater
  lymphopoiesis and myelopoiesis in the spleens (histology): much greater
Balb/C female mice [3]; Ex 46: day 7 after CP, 5.0 μmoles/mouse/day in 0.5% Tween 80, vs saline or Tween 80
  spleen weights: significantly greater
Balb/C female mice [3]; Ex 58: 50 mg/kg in 0.2% Tween 80 vs same dose in 0.02% Tween 80
  neutrophil counts: significantly higher
Balb/C female mice [3]; Ex 58: day 7 after CP, 50 mg/kg/dose in 0.02% and 0.2% Tween 80, vs saline
  neutrophil counts: significantly different from controls

## CC(=O)OC[C@H]1O[C@@H](n2cnc3c(=O)[nH]c(N)nc32)[C@H](OC(C)=O)[C@@H]1OC(C)=O [acetylguanosine, triacetylguanosine]
Balb/C female mice [2]
  spleen weight: significantly larger spleens

## monopalmitoylguanosine 2′,3′-acyclic dialcohol
[4]; Ex 56: fifth day
  number of myelocytes (femoral bone marrow): significantly greater
[4]; Ex 56: fifth day, 2.6 μmoles/mouse i.p. daily 4 days
  spleen weight: significantly elevated
Balb/C female mice [3]; [7]
  spleen weight: significantly elevated

## CCCCCCCCCCCCCCCC(=O)OC[C@H]1O[C@@H](n2cnc3c(=O)[nH]cnc32)C[C@@H]1O
[4]; Ex 44: day 5, 4 injections
  spleen weights: significantly greater
[4]; Ex 44: day 10, 9 injections, vs Tween 80
  spleen weights: significantly greater
[4]; Ex 44: day 10, 9 injections
  neutrophil counts: significantly greater
  total leukocyte counts: significantly greater
Balb/C female mice [2]
  Neutrophils: significantly increased
  total leukocytes: significantly increased
Balb/C female mice [3]; [8]
  neutrophil counts: significantly elevated
  total leukocyte counts: significantly elevated
Balb/C female mice [3]; Ex 48: day 5 after CP, 2.5 μmoles/mouse i.p. daily
  spleen weight: significantly elevated
Balb/C female mice [3]; [9]
  spleen weight: significantly increased
Balb/C female mice [3]; [7]
  spleen weight: significantly elevated

## CCCCCCCCCCCCCCCC(=O)OC[C@H]1O[C@@H](n2c(Br)nc3c(=O)[nH]c(N)nc32)[C@H](O)[C@@H]1O [palmitoyl-8-bromoguanosine]
[4]; Ex 56: fifth day
  number of myelocytes (femoral bone marrow): significantly greater

## CCCCCCCCCCCCCCCC(=O)OC[C@H]1O[C@@H](n2cnc3c(=O)[nH]c(=O)[nH]c32)[C@H](O)[C@@H]1O [palmitoylxanthosine, Palmitoylxanthosine]
Balb/C female mice [2]
  Neutrophils: significantly increased
  total leukocytes: significantly increased
Balb/C female mice [3]; [9]
  spleen weight: significantly increased

## Nc1nc2c(ncn2[C@@H]2O[C@H](COC(=O)c3ccccc3)[C@@H](O)[C@H]2O)c(=O)[nH]1
Balb/C female mice [2]; Ex 47: day 10 after CP, 2.5 μmoles/mouse/day
  platelet number: significantly greater
Balb/C female mice [3]; [10]
  Neutrophils: significantly elevated
  spleen weight: significantly elevated
Balb/C female mice [3]; Ex 47: day 7 after CP, 2.5 μmoles/mouse/day in 0.2% Tween 80 i.p. 6 days
  total white blood cells: significantly elevated
